Patent US20060167229A1, “Biologically active peptide conjugates” (priority 2002, published 2006)
Marks after values point to notes of the source that are not given here. Ends that are not written are not given here.

Key:
[1] = tested on: thymus gland; experiment: Immunity organ weight test, thymus gland index; type: in vivo, BALB/c mice; conditions: for weight of thymus gland (thymus gland index), X ± SD (%): healthy mice, saline 0.12 ± 0.02; for effect on the weight of the thymus gland (summary): statistically significant difference from saline in any of the dosage groups 0.5-500 μg/kg/day
Description: (§1) One day after the last test substance administration (day 16), the liver, spleen, and thymus gland were separated and blotted dry with filter paper and weighed. The phagocytosis index α was calculated as below: α=(^3√{square root over ( )}K)(W÷WLS)
Thymus gland index (%)=(thymus weight/body weight)×100%

[2] = tested on: NK cell; experiment: NK cell cytotoxicity activity test (spleen cells of treated mice against YAC-1 target cells, MTT); type: in vivo, BALB/c mice; conditions: for NK cell cytotoxic activity, X ± SD (%): healthy mice; for effect on the cytotoxic activity of NK cells (summary): statistically significant difference from saline in any of the dosage groups 0.5-500 μg/kg/day
Description: (§2) The above substances were all dissolved in 0.5 ml saline and injected intraperitoneal (i.p.) for 15 continuous days, once per day.
(§3) Ten mice per group. The day after the last test substance administration, the mice were sacrificed by cervical dislocation. The spleen was isolated aseptically and manually dispersed in cold D-Hank's solution using an injection needle. The dispersed cell suspension was further sieved through a 100 gauge 150 μm diameter stainless steel sieve. After centrifugation at 200 g for 10 minutes, the supernatant was discarded. The cell pellet was re-suspended in 10 volume of Tris-NH4Cl buffer and then kept standing still for 10 minutes at room temperature. The suspended cells were collected by centrifugation at 150 g for 10 minutes. The cells were washed 2-4 times with cold D-Hank's solution by re-suspending and collecting by centrifugation with condition as described above. The washed cells were then diluted to the desired cell densities by RPMI-1640 culture medium, containing 10% fetal bovine serum.
Mice spleen cells were prepared to 4×10^6/ml as described in section 1.1 above. Target cells YAC-1 were brought to log phase and adjusted to 1×10^5/ml. Using a 96 wells cell culture plate, […] were added to the control well containing only the spleen cells; […] and 100 μl culture medium were added to the control well containing only target cells; 100 μl mouse spleen cells and 100 μl target cells were added to the NK activity assay well. Three parallel sets of the above were prepared per mouse.
Samples were centrifuged at 150 g for 10 minutes to collect the cells. The supernatant was discarded and 50 μl/well MTT of 1 mg/ml was added. The reaction-mixture was then shaken for 2 minutes, and incubated at 37° C., 5% CO2 for 4 hours. The supernatant was discarded after centrifugation at 150 g for 10 minutes. […] 40 mM HCl-2-propanol was added and shaken for 3 minutes. An ELISA reader was used to obtain OD570 nm of each well referenced at 630 nm.

[3] = tested on: anti-SRBC antibody; experiment: Sheep Red Blood Cell (SRBC) hemolysis test, antibody formation; type: in vivo, BALB/c mice; conditions: for anti-SRBC antibody formation, X ± SD (Unit): healthy mice, SRBC day 12 (IFN-γ, IL-2 3×10^5 IU/kg/day), saline 32 ± 7; for effect on the synthesis of anti-SRBC antibody upon the antigenic challenge (summary): statistically significant difference from saline in any of the dosage groups 0.5-500 μg/kg/day
Description: Sheep red blood cells (SRBC) were prepared by collecting blood from cervical vein and put into a sterile flask with glass beads. The flask was shaken for 3 minutes and the blood then mixed with Alsever solution (glucose 2.05 g, NaCl 0.4 g, […] 0.8 g, adjust to 100 ml with distilled water) and stored at 4° C. Immediately before use, samples were centrifuged at 130 g, 5 minutes to collect the SRBC. The cells were washed two times by re-suspension and centrifugation in normal saline. Then the cell pellet was collected by centrifugation at 180 g for 10 minutes and re-suspended in saline to make the final working SRBC suspension, 2% (v/v).
Complement was prepared by adding 10 volumes of fresh Cavy serum into one volume centrifuge packed SRBC, and then gently shaking for 30 minutes at 4° C. The SRBC was removed by centrifugation at 200 g for 10 minutes. 10 volumes of normal saline were added to obtain the working complement solution.
The test substances were administered as described in section 1.1, plus intraperitoneal injection 0.2 ml SRBC per mouse on day 12. On the day after the last test substance administration (day 16), blood was collected from the eye canthus and left at room temperature for one hour for serum exudation. After centrifugation at 200 g for 10 minutes, the serum was diluted by 500 times with normal saline.
To 1 ml diluted mouse serum of each mouse, 0.5 ml SRBC suspension was added. Ice cold. Then 1 ml working complement solution was added and incubated at 37° C. water bath for 10 minutes. Reactions were terminated by ice cold. Samples were then centrifuged at 200 g for 10 minutes to obtain the supernatant.
To 1 ml of this supernatant, 3 ml Drabkin solution was added and left at room temperature for 10 minutes. OD540 nm was obtained.
Reference OD540 nm was obtained by mixing 0.25 ml SRBC suspension with Drabkin solution to 4 ml and placed at room temperature for 10 minutes before OD540 nm was taken.
Sample serum index=(OD540 nm of test sample÷reference OD540 nm)×500

[4] = tested on: spleen; experiment: Immunity organ weight test, spleen index; type: in vivo, BALB/c mice; conditions: for weight of spleen (spleen index), X ± SD (%): healthy mice, peptide 500 μg/kg/day i.p. 15 days, saline 0.53 ± 0.05; for effect on the weight of the spleen (summary): statistically significant difference from saline in any of the dosage groups 0.5-500 μg/kg/day
Description: as §1
Spleen index (%)=(spleen weight/body weight)×100%

[5] = tested on: interferon (IFN); set-up: species or system BALB/c mice; conditions: mouse, in vivo; for activity of T lymphocyte in secreting IFN, X ± SD (IU): ip
[6] = tested on: mononuclear phagocyte; experiment: Carbon particle clearance test, phagocytosis function; type: in vivo, BALB/c mice; set-up: key to X ± SD (phagocytotic index): α = cube root of K × (body weight ÷ liver+spleen weight)
Description: On the next day after the last test substance administration (day 16), the mice were injected with […] body weight India ink (5 times dilution with normal saline) from the tail vein.
One minute and five minutes after Indian ink injection, 20 μl blood was obtained from the eye canthus with a heparinized tubing. The blood was mixed with 2 ml 0.1% w/v Na2CO3 and then OD680 nm obtained. The outline clear index K was calculated by the following formula: K=(lgA1−lgA2)÷(t2−t1)
as §1

[7] = tested on: T lymphocyte; experiment: T lymphocyte transformation test (ConA-stimulated spleen cells of treated mice, MTT); type: in vivo, BALB/c mice; conditions: for X ± SD (stimulation index): healthy mice, saline 1.3 ± 0.1; for effect on T lymphocyte transformation (summary): statistically significant difference from saline in any of the dosage groups 0.5-500 μg/kg/day
Description: as §2, §3
(§4) Spleen cells of density 1×10^6/ml were placed onto a 96 wells cell culture plate, 100 μL/well, three parallel wells each of the assay sample and control sample per mouse. To the assay wells, 100 μl/well ConA of 100 μg/ml in RPMI-1640 was added, and […] plain RPMI-1640 was used for the controls. The cells were incubated for 66 hrs at 37° C., 5% CO2. The cells were then pelleted by centrifugation at 150 g for 10 minutes.
50 μl/well MTT of 1 mg/ml in RPMI-1640 was added to the cell pellet and the cells re-suspended by shaking for 2 minutes. The incubation was continued for 4 hours. The supernatant was discarded after centrifugation at 150 g for 10 minutes. 120 μl 40 mM HCl-2-propanol was added to the cell pellet and shaken for 3 minutes. […]
Each mouse formed three assay wells and three control wells. The Stimulation Index (SI) of each mouse was obtained by first deriving the average OD of the three parallel wells, then dividing the value of the assay wells by the control wells.

[8] = tested on: IL-2; experiment: T lymphocyte IL-2 secretion test (HT-2 cell bioassay of ConA supernatant); type: in vivo, BALB/c mice; conditions: for activity of T lymphocyte in secreting IL-2, X ± SD (IU): healthy mice
Description: as §4
HT-2 cells at log phase were collected by centrifugation at 150 g for 10 minutes, and washed three times with cold Hank's solution by re-suspension and centrifugation. The collected HT-2 cells were re-suspended in RPMI-1640 and incubated at 37° C., 5% CO2 for 30 minutes. The cells were further washed twice with RPMI-1640 by re-suspension and centrifugation, and re-suspended to final concentration of 2×10^5/ml with RPMI-1640.
rIL-2 was diluted to the following concentration with RPMI-1640: 500 IU/ml, 250 IU/ml, 125 IU/ml, 62.5 IU/ml, 31.25 IU/ml, and […].
The plate was incubated at 37° C., 5% CO2 for 68 hours, then centrifuged at 150 g for 15 minutes and the supernatant removed. 100 μl 0.5 mg/ml MTT in RPMI-1640 without phenolsulfonphthalein was added into each well. After shaking for 3-4 minutes to re-suspend the cells, continue to incubate for another 4 hours. Samples were then centrifuged at 150 g for 15 minutes and the supernatant was removed. To each well, 120 μl 40 mM HCl-2-propanol was added, mixed for 3-4 minutes and OD analyzed at 570 nm, referenced at 630 nm with an ELISA plate reader.
The average OD of the three parallel wells of each dilution was taken and plotted against concentration on a semi-log paper, concentration on the X-axis. The concentration at 50% OD saturation was obtained for both the testing supernatant and rIL-2.

[9] = peptide 5 μg/kg/day i.p. 15 days (IFN-γ, IL-2 3×10^5 IU/kg/day)
[10] = peptide 500 μg/kg/day i.p. 15 days (IFN-γ, IL-2 3×10^5 IU/kg/day), saline 63 ± 9
[11] = peptide 0.5 μg/kg/day i.p. 15 days
[12] = peptide 5 μg/kg/day i.p. 15 days
[13] = peptide 50 μg/kg/day i.p. 15 days
[14] = peptide 500 μg/kg/day i.p. 15 days
[15] = statistically significant difference from saline in any of the dosage groups 0.5-500 μg/kg/day
[16] = peptide 500 μg/kg/day i.p. 15 days (IFN-γ, IL-2 3×10^5 IU/kg/day)

Row | Substance | weight of thymus gland (thymus gland index), X ± SD (%) [1, 9] | effect on the weight of the thymus gland (summary) [1] | NK cell cytotoxic activity, X ± SD (%) [2, 10] | effect on the cytotoxic activity of NK cells (summary) [2] | anti-SRBC antibody formation, X ± SD (Unit) [3, 11] | anti-SRBC antibody formation, X ± SD (Unit) [3, 12] | anti-SRBC antibody formation, X ± SD (Unit) [3, 13] | anti-SRBC antibody formation, X ± SD (Unit) [3, 14] | weight of spleen (spleen index), X ± SD (%) [4] | effect on the weight of the spleen (summary) [4] | effect on the secretion of IFN by T lymphocytes (summary) [5] | activity of T lymphocyte in secreting IFN, X ± SD (IU) [5] | effect on the synthesis of anti-SRBC antibody upon the antigenic challenge (summary) [3] | X ± SD (stimulation index) [7, 16] | effect on T lymphocyte transformation (summary) [7] | further results
1 | LRVAPQEHPVL [CMS013] | 0.21 ± 0.05 % | increase | 84 ± 9 % | increase | 7 ± 1 Unit | 93 ± 28*^@ Unit | 70 ± 9*^@ Unit | 80 ± 16*^@ Unit | 0.44 ± 0.07 % | decrease | enhance | 154 ± 15*^@^ IU | – | – | – | X ± SD (phagocytotic index) ([6]; healthy mice, peptide 5 μg/kg/day i.p. 15 days (IFN-γ, IL-2 3×10^5 IU/kg/day), saline 5.1 ± 0.6): 6.7 ± 0.2; effect on the phagocytotic activity of mononuclear phagocyte (summary) [6, 15]: enhance
2 | MATAASSSSL [CMS021] | 0.20 ± 0.06 % | increase | – | increase | 57 ± 9*^@ Unit | 82 ± 30*^@ Unit | 94 ± 20*^@^ Unit | – | 0.36 ± 0.04 % | decrease | enhance | 143 ± 17*^@^ IU | enhance | 1.6 ± 0.1 | enhance | NK cell cytotoxic activity, X ± SD (%) ([2]; peptide 50 μg/kg/day i.p. 15 days (IFN-γ, IL-2 3×10^5 IU/kg/day), saline 56 ± 8): 88 ± 12*^@^ %
3 | Phe Gln Pro Ser Phe (FQPSF; printed: Phe Gln Pro Ser Phe) [CMS028] | 0.28 ± 0.06*^@^ % | increase | 90 ± 5 % | increase | 18 ± 5 Unit | 121 ± 48*^@^ Unit | – | – | – | – | enhance | 96 ± 13 IU | – | – | – | weight of thymus gland (thymus gland index), X ± SD (%) ([1]; peptide 0.5 μg/kg/day i.p. 15 days (IFN-γ, IL-2 3×10^5 IU/kg/day)): 0.20 ± 0.06 %; weight of thymus gland (thymus gland index), X ± SD (%) ([1]; peptide 50 μg/kg/day i.p. 15 days (IFN-γ, IL-2 3×10^5 IU/kg/day)): 0.18 ± 0.04 %; weight of thymus gland (thymus gland index), X ± SD (%) [1, 16]: 0.19 ± 0.02 %; NK cell cytotoxic activity, X ± SD (%) ([2]; peptide 0.5 μg/kg/day i.p. 15 days (IFN-γ, IL-2 3×10^5 IU/kg/day), saline 58 ± 7): 79 ± 3 %
4 | Ala Gly Asp Asp Ala Pro Arg Ala Val Phe (AGDDAPRAVF; listed as Sus scrofa) [CMS007] | – | – | – | – | – | 122 ± 12*^@^ Unit | – | 69 ± 17*^@ Unit | 0.32 ± 0.05 % | decrease | – | – | enhance | 1.6 ± 0.1 | enhance | activity of T lymphocyte in secreting IL-2, X ± SD (IU) ([8]; peptide 5 μg/kg/day i.p. 15 days (IFN-γ, IL-2 3×10^5 IU/kg/day), saline 37 ± 9): 64 ± 12 IU; activity of T lymphocyte in secreting IL-2, X ± SD (IU) ([8]; peptide 500 μg/kg/day i.p. 15 days (IFN-γ, IL-2 3×10^5 IU/kg/day), saline 39 ± 10): 86 ± 15*^ IU; effect on the secretion of interleukin-2 (IL-2) by T lymphocytes (summary) [8, 15]: enhance; X ± SD (stimulation index) [7, 9]: 1.7 ± 0.1
